Converted amounts (≈) assume the structure as drawn.
How the values were obtained:
Assay type in all cases: cell-based
[1] = system: S. aureus MP-12; assay: Broth dilution MIC determination (CLSI), S. aureus MP-12; details: Staphylococcus aureus, MP12; strain MP-12, broth dilution
[2] = system: E. coli MP-4; assay: Broth dilution MIC determination (CLSI), E. coli MP-4; details: Escherichia coli, MP4; strain MP-4, broth dilution; read-out: MIC E. coli MP-4
[3] = system: K. pneumoniae MP-546; assay: Broth dilution MIC determination (CLSI), K. pneumoniae MP-546; details: Klebsiella pneumoniae, MP546; strain MP-546, broth dilution
[4] = system: P. aeruginosa MP-3; assay: Broth dilution MIC determination (CLSI), P. aeruginosa MP-3; details: Pseudomonas aeruginosa, MP3; strain MP-3, broth dilution
[5] = system: A. baumannii MP-15; assay: Broth dilution MIC determination (CLSI), A. baumannii MP-15; details: Acinetobacter baumannii, MP15; strain MP-15, broth dilution; read-out: MIC A. baumanii MP-15

In the case of `C=CCN1CC=C([C@H]2[C@@H](C)OC(=O)C(C)(C)C(=O)[C@H](C)[C@@H](O[C@@H]3O[C@H](C)C[C@H](N(C)C)[C@H]3O)[C@](C)(OC)C[C@@H](C)CN2C)CC1` [Compound 1, (2R,3S,6R,8R,9R,10R)-3-(1-Allyl-1,2,3,6-tetrahydropyridin-4-yl)-9-(((2S,3R,4S,6R)-4-(dimethylamino)-3-hydroxy-6-methyltetrahydro-2H-pyran-2-yl)oxy)-8-methoxy-2,4,6,8,10,12,12-heptamethyl-1-oxa-4-azacyclotridecane-11,13-dione], the MIC [1] is reported as > 32 µg/mL, the MIC [2] is reported as > 32 µg/mL and the MIC [3] is reported as > 32 µg/mL. The MIC [4] was > 32 µg/mL and the MIC [5] was > 32 µg/mL.
For `CCC[N+]1(C)CC=C([C@H]2[C@@H](C)OC(=O)C(C)(C)C(=O)[C@H](C)[C@@H](O[C@@H]3O[C@H](C)C[C@H](N(C)C)[C@H]3O)[C@](C)(OC)C[C@@H](C)CN2C)CC1` (stereo partly drawn) [Compound 4, 4-((2R,3S,6R,8R,9R,10R)-9-(((2S,3R,4S,6R)-4-(dimethylamino)-3-hydroxy-6-methyltetrahydro-2H-pyran-2-yl)oxy)-8-methoxy-2,4,6,8,10,12,12-heptamethyl-11,13-dioxo-1-oxa-4-azacyclotridecan-3-yl)-1-methyl-1-propyl-1,2,3,6-tetrahydropyridin-1-ium], the MIC [1] was > 32 µg/mL, the MIC [2] was > 32 µg/mL and the MIC [3] was > 32 µg/mL. The MIC [4] was > 32 µg/mL and the MIC [5] was > 32 µg/mL.
In the case of `CO[C@]1(C)C[C@@H](C)CN(C)[C@H](C2CC3CCC(C2)N3C(=O)CN(C)C)COC(=O)C(C)(C)C(=O)[C@H](C)[C@H]1O[C@@H]1O[C@H](C)C[C@H](N(C)C)[C@H]1O` (stereo partly drawn) [Compound 6, (3R,6R,8R,9R,10R)-9-(((2S,3R,4S,6R)-4-(dimethylamino)-3-hydroxy-6-methyltetrahydro-2H-pyran-2-yl)oxy)-3-(8-(dimethylglycyl)-8-azabicyclo[3.2.1]octan-3-yl)-8-methoxy-4,6,8,10,12,12-hexamethyl-1-oxa-4-azacyclotridecane-11,13-dione], the MIC [1] is reported as > 32 µg/mL, the MIC [2] is reported as 4 to 32 µg/mL (≈ 5.76 to 46 µM) and the MIC [3] is reported as 4 to 32 µg/mL (≈ 5.76 to 46 µM). The MIC [4] was > 32 µg/mL and the MIC [5] was > 32 µg/mL.
`CO[C@]1(C)C[C@@H](C)CN[C@H](C2CCN(C(C)C)CC2)COC(=O)C(C)(C)C(=O)[C@H](C)[C@H]1O[C@@H]1O[C@H](C)C[C@H](N(C)C)[C@H]1O` [Compound 7, (3R,6R,8R,9R,10R)-9-(((2S,3R,4S,6R)-4-(Dimethylamino)-3-hydroxy-6-methyltetrahydro-2H-pyran-2-yl)oxy)-3-(1-isopropylpiperidin-4-yl)-8-methoxy-6,8,10,12,12-pentamethyl-1-oxa-4-azacyclotridecane-11,13-dione] was tested, and the MIC [1] was 4 to 32 µg/mL (≈ 6.54 to 52.3 µM), the MIC [2] was < 4 µg/mL and the MIC [3] was < 4 µg/mL. For the same compound, the MIC [4] was > 32 µg/mL and the MIC [5] was > 32 µg/mL.
With `CO[C@]1(C)C[C@@H](C)CN(C)[C@@H]([C@H]2CNC(=O)C2)COC(=O)C(C)(C)C(=O)[C@H](C)[C@H]1O[C@@H]1O[C@H](C)C[C@H](N(C)C)[C@H]1O` [Compound 8, (3S,6R,8R,9R,10R)-9-(((2S,3R,4S,6R)-4-(dimethylamino)-3-hydroxy-6-methyltetrahydro-2H-pyran-2-yl)oxy)-8-methoxy-4,6,8,10,12,12-hexamethyl-3-((R)-5-oxopyrrolidin-3-yl)-1-oxa-4-azacyclotridecane-11,13-dione] the MIC [1] was > 32 µg/mL, the MIC [2] was < 4 µg/mL and the MIC [3] was 4 to 32 µg/mL (≈ 6.85 to 54.8 µM). The MIC [4] was > 32 µg/mL and the MIC [5] was > 32 µg/mL.
With `CO[C@]1(C)C[C@@H](C)CN(C)[C@H](C2CCN(C(=O)CN3CCCC3)CC2)COC(=O)C(C)(C)C(=O)[C@H](C)[C@H]1O[C@@H]1O[C@H](C)C[C@H](N(C)C)[C@H]1O` [Compound 9, (3R,6R,8R,9R,10R)-9-(((2S,3R,4S,6R)-4-(dimethylamino)-3-hydroxy-6-methyltetrahydro-2H-pyran-2-yl)oxy)-8-methoxy-4,6,8,10,12,12-hexamethyl-3-(1-(2-(pyrrolidin-1-yl)acetyl)piperidin-4-yl)-1-oxa-4-azacyclotridecane-11,13-dione] the MIC [1] was > 32 µg/mL, the MIC [2] was 4 to 32 µg/mL (≈ 5.76 to 46 µM) and the MIC [3] was 4 to 32 µg/mL (≈ 5.76 to 46 µM). For the same compound, the MIC [4] was > 32 µg/mL and the MIC [5] was > 32 µg/mL.
`CO[C@]1(C)C[C@@H](C)CN(C)[C@H](C2CN(C(=O)CN3Cc4ccccc4C3)C2)COC(=O)C(C)(C)C(=O)[C@H](C)[C@H]1O[C@@H]1O[C@H](C)C[C@H](N(C)C)[C@H]1O` [Compound 10, (3R,6R,8R,9R,10R)-9-(((2S,3R,4S,6R)-4-(dimethylamino)-3-hydroxy-6-methyltetrahydro-2H-pyran-2-yl)oxy)-3-(1-(2-(isoindolin-2-yl)acetyl)azetidin-3-yl)-8-methoxy-4,6,8,10,12,12-hexamethyl-1-oxa-4-azacyclotridecane-11,13-dione] was tested, and the MIC [1] was 4 to 32 µg/mL (≈ 5.59 to 44.8 µM), the MIC [2] was < 4 µg/mL and the MIC [3] was 4 to 32 µg/mL (≈ 5.59 to 44.8 µM). For the same compound, the MIC [4] was > 32 µg/mL and the MIC [5] was 4 to 32 µg/mL (≈ 5.59 to 44.8 µM).
With `CO[C@]1(C)C[C@@H](C)CN(C)[C@H]([C@H]2CCN(C(C)C)C2)COC(=O)C(C)(C)C(=O)[C@H](C)[C@H]1O[C@@H]1O[C@H](C)C[C@H](N(C)C)[C@H]1O` [Compound 11, (3R,6R,8R,9R,10R)-9-(((2S,3R,4S,6R)-4-(Dimethylamino)-3-hydroxy-6-methyltetrahydro-2H-pyran-2-yl)oxy)-3-((S)-1-isopropylpyrrolidin-3-yl)-8-methoxy-4,6,8,10,12,12-hexamethyl-1-oxa-4-azacyclotridecane-11,13-dione] the MIC [1] was 4 to 32 µg/mL (≈ 6.54 to 52.3 µM), the MIC [2] was < 4 µg/mL and the MIC [3] was < 4 µg/mL. The MIC [4] was > 32 µg/mL and the MIC [5] was > 32 µg/mL.
For `CO[C@]1(C)C[C@@H](C)CN(C)[C@@H](C2CCN(CC(C)C)CC2)COC(=O)C(C)(C)C(=O)[C@H](C)[C@H]1O[C@@H]1O[C@H](C)C[C@H](N(C)C)[C@H]1O` [Compound 12, (3S,6R,8R,9R,10R)-9-(((2S,3R,4S,6R)-4-(dimethylamino)-3-hydroxy-6-methyltetrahydro-2H-pyran-2-yl)oxy)-3-(1-isobutylpiperidin-4-yl)-8-methoxy-4,6,8,10,12,12-hexamethyl-1-oxa-4-azacyclotridecane-11,13-dione], the MIC [1] was 4 to 32 µg/mL (≈ 6.25 to 50 µM), the MIC [2] was < 4 µg/mL and the MIC [3] was < 4 µg/mL. The MIC [4] was > 32 µg/mL and the MIC [5] was > 32 µg/mL.
For `CCC(=O)N1CCC([C@@H]2COC(=O)C(C)(C)C(=O)[C@H](C)[C@@H](O[C@@H]3O[C@H](C)C[C@H](N(C)C)[C@H]3O)[C@](C)(OC)C[C@@H](C)CN2C)CC1` [Compound 13, (3R,6R,8R,9R,10R)-9-(((2S,3R,4S,6R)-4-(dimethylamino)-3-hydroxy-6-methyltetrahydro-2H-pyran-2-yl)oxy)-8-methoxy-4,6,8,10,12,12-hexamethyl-3-(1-propionylpiperidin-4-yl)-1-oxa-4-azacyclotridecane-11,13-dione], the MIC [1] was 4 to 32 µg/mL (≈ 6.25 to 50 µM), the MIC [2] was 4 to 32 µg/mL (≈ 6.25 to 50 µM) and the MIC [3] was 4 to 32 µg/mL (≈ 6.25 to 50 µM). For the same compound, the MIC [4] was > 32 µg/mL and the MIC [5] was > 32 µg/mL.
For `CO[C@]1(C)C[C@@H](C)CN(C)[C@H](C2CN(C(=O)CN3CCC3)C2)COC(=O)C(C)(C)C(=O)[C@H](C)[C@H]1O[C@@H]1O[C@H](C)C[C@H](N(C)C)[C@H]1O` [Compound 14], the MIC [1] was > 32 µg/mL, the MIC [2] was < 4 µg/mL and the MIC [3] was > 32 µg/mL. For the same compound, the MIC [4] was > 32 µg/mL and the MIC [5] was > 32 µg/mL.
`CCN1C2CCC1CC([C@@H]1COC(=O)C(C)(C)C(=O)[C@H](C)[C@@H](O[C@@H]3O[C@H](C)C[C@H](N(C)C)[C@H]3O)[C@](C)(OC)C[C@@H](C)CN1C)C2` (stereo partly drawn) [Compound 15, (3R,6R,8R,9R,10R)-9-(((2S,3R,4S,6R)-4-(dimethylamino)-3-hydroxy-6-methyltetrahydro-2H-pyran-2-yl)oxy)-3-(8-ethyl-8-azabicyclo[3.2.1]octan-3-yl)-8-methoxy-4,6,8,10,12,12-hexamethyl-1-oxa-4-azacyclotridecane-11,13-dione] was tested, and the MIC [1] was 4 to 32 µg/mL (≈ 6.27 to 50.2 µM), the MIC [2] was < 4 µg/mL and the MIC [3] was 4 to 32 µg/mL (≈ 6.27 to 50.2 µM). For the same compound, the MIC [4] was > 32 µg/mL and the MIC [5] was > 32 µg/mL.
In the case of `CO[C@]1(C)C[C@@H](C)CN(C)[C@H](C2CN(CC3CCC3)C2)COC(=O)C(C)(C)C(=O)[C@H](C)[C@H]1O[C@@H]1O[C@H](C)C[C@H](N(C)C)[C@H]1O` [Compound 17, (3R,6R,8R,9R,10R)-3-(1-(cyclobutylmethyl)azetidin-3-yl)-9-(((2S,3R,4S,6R)-4-(dimethylamino)-3-hydroxy-6-methyltetrahydro-2H-pyran-2-yl)oxy)-8-methoxy-4,6,8,10,12,12-hexamethyl-1-oxa-4-azacyclotridecane-11,13-dione], the MIC [1] is reported as 4 to 32 µg/mL (≈ 6.41 to 51.3 µM), the MIC [2] is reported as < 4 µg/mL and the MIC [3] is reported as < 4 µg/mL. For the same compound, the MIC [4] was > 32 µg/mL and the MIC [5] was 4 to 32 µg/mL (≈ 6.41 to 51.3 µM).
For `CO[C@]1(C)C[C@@H](C)CN(C)[C@H](c2ccncc2)COC(=O)C(C)(C)C(=O)[C@H](C)[C@H]1O[C@@H]1O[C@H](C)C[C@H](N(C)C)[C@H]1O` [Compound 19, (3R,6R,8R,9R,10R)-9-(((2S,3R,4S,6R)-4-(dimethylamino)-3-hydroxy-6-methyltetrahydro-2H-pyran-2-yl)oxy)-8-methoxy-4,6,8,10,12,12-hexamethyl-3-(pyridin-4-yl)-1-oxa-4-azacyclotridecane-11,13-dione], the MIC [1] was > 32 µg/mL, the MIC [2] was > 32 µg/mL and the MIC [3] was > 32 µg/mL. The MIC [4] was > 32 µg/mL and the MIC [5] was > 32 µg/mL.
For `CO[C@]1(C)C[C@@H](C)CN(C)[C@H](C2CN(CC(=O)NCc3ccccc3)C2)COC(=O)C(C)(C)C(=O)[C@H](C)[C@H]1O[C@@H]1O[C@H](C)C[C@H](N(C)C)[C@H]1O` [Compound 20, N-benzyl-2-(3-((3R,6R,8R,9R,10R)-9-(((2S,3R,4S,6R)-4-(dimethylamino)-3-hydroxy-6-methyltetrahydro-2H-pyran-2-yl)oxy)-8-methoxy-4,6,8,10,12,12-hexamethyl-11,13-dioxo-1-oxa-4-azacyclotridecan-3-yl)azetidin-1-yl)acetamide], the MIC [1] was 4 to 32 µg/mL (≈ 5.69 to 45.5 µM), the MIC [2] was < 4 µg/mL and the MIC [3] was 4 to 32 µg/mL (≈ 5.69 to 45.5 µM). The MIC [4] was > 32 µg/mL and the MIC [5] was > 32 µg/mL.

Reference: US20220177508A1, “C10-Cyclic Substituted 13-Membered Macrolides and Uses Thereof” (Zikani Therapeutics, Inc., priority 2018, published 2022)
